# Test results published in patent US12084426B2, “Indazole carboxamides as kinase inhibitors” (BRISTOL-MYERS SQUIBB COMPANY, priority 2018, dated 2024).
# pIC50: −log10 of the molar value.
# System: MLKL phosphorylation in HT29-L23 human colorectal adenocarcinoma cells
# Assay: MLKL Phosphorylation High-Content Assay
# Format: cell-based
# Settings: Homo sapiens, 6 h, necroptosis induced with TNFα, SMAC mimetic and Z-VAD, read-out: pMLKL (IC50)
# Protocol: MLKL Phosphorylation High-Content Assay
# HT29-L23 human colorectal adenocarcinoma cells were maintained in RPMI 1640 medium containing 10% heat-inactivated FBS, 1% Penicillin-Streptomycin and 10 mM HEPES. Cells were seeded at 2,000 cells/well in 384 well tissue culture-treated microplates (Greiner #781090-3B) and incubated at 37° C. (5% CO2/95% O2) for 2 d. On the day of the assay, the cells were treated with test compounds at final concentrations of 6.25 to 0.106 μM for 30 min at 37° C. (5% CO2/95% O2). Necroptosis was induced using a mixture of human TNFα (35 ng/mL) (Peprotech #300-01A), SMAC mimetic (from US 2015/0322111 A1) (700 nM) and Z-VAD (140 nM) (BD pharmingen #51-6936). Following 6 h incubation at 37° C. (5% CO2/95% O2), the cells were fixed with 4% formaldehyde (ACROS 11969-0010) for 15 min at rt, then permeabilized with phosphate buffered saline (PBS) containing 0.2% Triton-X-100 for 10 min. MLKL phosphorylation was detected using anti-MLKL (phospho S358) antibody (Abcam #ab187091) (1:1000 dilution in Blocking Buffer [PBS supplemented with 0.1% BSA]) with ON incubation at 4° C. After washing three times in PBS, goat anti-rabbit Alexa-488 (1:1000 dilution) (Life Technologies, A11008) and Hoechst 33342 (Life Technologies, H3570) (1:2000 dilution) in Blocking Buffer were added for 1 h at rt. Following another three cycles of washes in PBS, the microplates were sealed, and cellular images were acquired in the Cellomics ArrayScan VTI high-content imager equipped with an X1 camera. Fluorescent images were taken using a 10× objective and the 386-23 BGRFRN_BGRFRN and 485-20 BGRFRN_BGRFRN filter sets, for nuclei and MLKL phosphorylation, respectively. The image sets were analyzed using the Compartmental Analysis Bioapplication software (Cellomics). The level of MLKL phosphorylation was quantified as MEAN_CircRingAvgIntenRatio. The maximal inhibitory response was defined by the activity induced by Necls (CAS #: 852391-15-2, 6.25 μM). The IC50 value was defined as the concentration of compound that produces 50% of the maximal inhibition. The data were fitted using the 4-parameter logistic equation to calculate the IC50 and Ymax values.
row,SMILES,pIC50
1,"CNC(=O)c1n[nH]c2cc(N3CCOC(C(=O)Nc4cnn(Cc5ccccc5)c4)C3)ccc12 (racemic) [Example 21, 6-{2-[(1-benzyl-1H-pyrazol-4-yl)carbamoyl]morpholin-4-yl}-N-methyl-1H-indazole-3-carboxamide]",5.92
2,"CNC(=O)c1n[nH]c2cc(N3CCCC(C(=O)NCCC(C)c4ccccc4)C3)ccc12 (centres unmarked) [Example 17, N-methyl-6-{3-[(3-phenylbutyl)carbamoyl]piperidin-1-yl}-1H-indazole-3-carboxamide]",6.70
3,"CNC(=O)c1n[nH]c2cc(N3CCN(C)C(C(=O)NCCC(C)c4ccc(F)cc4)C3)ccc12 (centres unmarked) [Example 19, 6-(3-{[3-(4-fluorophenyl)butyl]carbamoyl}-4-methylpiperazin-1-yl)-N-methyl-1H-indazole-3-carboxamide]",6.16
4,"CNC(=O)c1n[nH]c2cc(N3CCN(C)C(C(=O)NCCC(C)c4ccccc4)C3)ccc12 (centres unmarked) [Example 20, N-methyl-6-{4-methyl-3-[(3-phenylbutyl)carbamoyl]piperazin-1-yl}-1H-indazole-3-carboxamide]",5.64
5,"CNC(=O)c1n[nH]c2cc(N3CCCC(C(=O)NCc4ccccc4Oc4ccccc4)C3)ccc12 (racemic) [Example 8, N-methyl-6-(3-{ [(2-phenoxyphenyl)methyl]carbamoyl}piperidin-1-yl)-1H-indazole-3-carboxamide]",6.96
6,"CNC(=O)c1n[nH]c2cc(N3CCOC(C(=O)NCCC(C)c4ccc(F)cc4)C3)ccc12 (centres unmarked) [Example 24, 6-(2-{[3-(4-fluorophenyl)butyl]carbamoyl}morpholin-4-yl)-N-methyl-1H-indazole-3-carboxamide]",6.96
7,"CNC(=O)c1n[nH]c2cc(N3CCCC(C(=O)NCc4ccccc4OC(F)(F)F)C3)ccc12 (centres unmarked) [Example 1, N-methyl-6-[3-({[2-(trifluoromethoxy)phenyl]methyl}carbamoyl)piperidin-1-yl]-1H-indazole-3-carboxamide]",6.18
8,CNC(=O)c1n[nH]c2cc(N3CCOC(C(=O)NCC4CC4c4cccc(F)c4)C3)ccc12 (centres unmarked) [Example 23],5.80
9,"CNC(=O)c1n[nH]c2cc(N3CCN(C)C(C(=O)NCc4ccccc4OC)C3)ccc12 (centres unmarked) [Example 2, 6-(3-{[(2-methoxyphenyl)methyl]carbamoyl}-4-methylpiperazin-1-yl)-N-methyl-1H-indazole-3-carboxamide]",< 5.21
10,"CNC(=O)c1n[nH]c2cc(N3CCCC(C(=O)NCCCOC4CCCCC4)C3)ccc12 (racemic) [Example 9, 6-(3-{[3-(cyclohexyloxy)propyl]carbamoyl}piperidin-1-yl)-N-methyl-1H-indazole-3-carboxamide]",5.46
11,"CNC(=O)c1n[nH]c2cc(N3CCCC(C(=O)NC4CCCC(c5ccccc5)C4)C3)ccc12 (single isomer, unassigned) [Example 15, N-methyl-6-{3-[(3-phenylcyclohexyl)carbamoyl]piperidin-1-yl}-1H-indazole-3-carboxamide]",5.72
12,"CNC(=O)c1n[nH]c2cc(N3CCOC(C(=O)NCCC(C)c4ccccc4)C3)ccc12 (centres unmarked) [Example 22, N-methyl-6-{2-[(3-phenylbutyl)carbamoyl]morpholin-4-yl}-1H-indazole-3-carboxamide]",6.36
13,"CNC(=O)c1n[nH]c2cc(N3CCN(C)C(C(=O)NCCC(O)c4ccccc4)C3)ccc12 (centres unmarked) [Example 18, 6 6-{3-[(3-hydroxy-3-phenylpropyl)carbamoyl]-4-methylpiperazin-1-yl}-N-methyl-1H-indazole-3-carboxamide]",5.62
14,"CNC(=O)c1n[nH]c2cc(N3CCNC(C(=O)NCCC(C)c4ccccc4)C3)ccc12 (centres unmarked) [Example 4, N-methyl-6-{3-[(3-phenylbutyl)carbamoyl]piperazin-1-yl}-1H-indazole-3-carboxamide]",5.49
15,"CNC(=O)c1n[nH]c2cc(N3CCCC(C(=O)NCCC(O)c4ccc(F)c(F)c4)C3)ccc12 (centres unmarked) [Example 14, 6-(3-{[3-(3,4-difluorophenyl)-3-hydroxypropyl]carbamoyl}piperidin-1-yl)-N-methyl-1H-indazole-3-carboxamide]",5.62
16,"CNC(=O)c1n[nH]c2cc(N3CCOC(C(=O)NCCC(O)c4ccc(Cl)cc4)C3)ccc12 (centres unmarked) [Example 25, 6-(2-{[3-(4-chlorophenyl)-3-hydroxypropyl]carbamoyl}morpholin-4-yl)-N-methyl-1H-indazole-3-carboxamide]",5.35
17,"CNC(=O)c1n[nH]c2cc(C3CCCN(C(=O)NCCC(C)c4ccccc4)C3)ccc12 (centres unmarked) [Example 5, N-methyl-6-{1-[(3-phenylbutyl)carbamoyl]piperidin-3-yl}-1H-indazole-3-carboxamide]",6.72
18,"CNC(=O)c1n[nH]c2cc(N3CCCC(C(=O)NCCC(O)c4ccccc4)C3)ccc12 (centres unmarked) [Example 10, 6-{3-[(3-hydroxy-3-phenylpropyl)carbamoyl]piperidin-1-yl}-N-methyl-1H-indazole-3-carboxamide]",5.44
19,"CNC(=O)c1n[nH]c2cc(N3CCOC(C(=O)NC4CCCC(c5ccccc5)C4)C3)ccc12 (centres unmarked) [Example 26, N-methyl-6-{2-[(3-phenylcyclohexyl)carbamoyl]morpholin-4-yl}-1H-indazole-3-carboxamide]",5.60
20,"CNC(=O)c1n[nH]c2cc(N3CCCC(C(=O)NCc4ccccc4OCC4CC4)C3)ccc12 (racemic) [Example 12, 6-[3-({[2-(cyclopropylmethoxy)phenyl]methyl}carbamoyl)piperidin-1-yl]-N-methyl-1H-indazole-3-carboxamide]",6.54
21,"CNC(=O)c1n[nH]c2cc(N3CCCC(C(=O)NCC(O)COc4ccccc4)C3)ccc12 (single isomer, unassigned) [Example 6, 6-{3-[(2-hydroxy-3-phenoxypropyl)carbamoyl]piperidin-1-yl}-N-methyl-1H-indazole-3-carboxamide]",5.37
22,"CNC(=O)c1n[nH]c2cc(N3CCOC(C(=O)NCCC(O)c4ccc(F)c(F)c4)C3)ccc12 (centres unmarked) [Example 3, 6-(2-{[3-(3,4-difluorophenyl)-3-hydroxypropyl]carbamoyl}morpholin-4-yl)-N-methyl-1H-indazole-3-carboxamide]",5.37

# Same assay, conditions: necroptosis induced with TNFα, SMAC mimetic and Z-VAD, 6 h, read-out: pMLKL (IC50)
row,SMILES,pIC50
1,"CNC(=O)c1n[nH]c2cc(N3CCCC(C(=O)NCC(O)COc4ccccc4)C3)ccc12 (single isomer, unassigned) [Example 7, 6-{3-[(2-hydroxy-3-phenoxypropyl)carbamoyl]piperidin-1-yl}-N-methyl-1H-indazole-3-carboxamide]",5.66
2,"CNC(=O)c1n[nH]c2cc(N3CCCC(C(=O)Nc4cnn(Cc5ccccc5)c4)C3)ccc12 (centres unmarked) [Example 11, 6-{3-[(1-benzyl-1H-pyrazol-4-yl)carbamoyl]piperidin-1-yl}-N-methyl-1H-indazole-3-carboxamide]",5.60
3,"CNC(=O)c1n[nH]c2cc(N3CCCC(C(=O)NCCCOc4ccc(F)cc4)C3)ccc12 (centres unmarked) [Example 13, 6-(3-{[3-(4-fluorophenoxy)propyl]carbamoyl}piperidin-1-yl)-N-methyl-1H-indazole-3-carboxamide]",5.49
4,"CNC(=O)c1n[nH]c2cc(N3CCCC(C(=O)NC4CCCC(c5ccccc5)C4)C3)ccc12 (racemic) [Example 16, N-methyl-6-{3-[(3-phenylcyclohexyl)carbamoyl]piperidin-1-yl}-1H-indazole-3-carboxamide]",5.51
